This note sets out measurements from patent US9682140B2, “Ezrin-derived peptides and pharmaceutical compositions thereof” (priority 2016, dated 2017).

Test [1] concerns MAPK/ERK signaling pathway. Put plainly: Activation of MAPK/ERK signaling pathway in BALB/c mouse fibroblasts (immune blotting of phospho-p44/42 MAPK). Type of test: cell-based. Here is the method:
Peptide […] (SEQ ID No: 1) was obtained as described in Example 1, BALB/c mouse fibroblast were purchased from American Type Culture Collection and propagated in a complete medium consisting of high glucose DMEM supplemented with 10% fetal calf serum, 1 mM sodium pyruvate, 1:50 MEM non-essential amino acids, 2 mM L-glutamine, 10 μg/ml gentamicin and 50 μM β-mercaptoethanol. Cells were grown in 10 cm culture dishes at 5% CO2 and 37° C. Cell passages were made at the 50-60% confluency. For cell detachment, 0.05% trypsin/EDTA was used with following centrifugation (470×g, 15 min) in 10-fold volume of washing medium containing 10% FCS to quench trypsin. Supernatant was discarded and the cell pellet was suspended in 10 ml of complete culture medium, then cell numbers were counted using hemocytometer before cells were used for experiments.
Fibroblasts were cultured in 8-well culture plates, the examined peptide or cytokine TGF-β1 (positive control) solution, or equivalent volume of culture medium (negative control) were added into respective triplicate cultures. Cells were incubated in presence of the peptide […] SEQ ID No: 1 (10 μg/ml) or TGF-β1, or without any effector compound during 1 or 6 hours at 5% C02 and 37° C. At the time points indicated, cell were harvested, washed twice with PBS and lyzed using the cell extraction buffer in the presence of protease inhibitors during 30 min at 4° C. Extracts were cleared by centrifugation (14,000×g, 10 min, 4° C.). Protein concentration was measured using protein assay reagent (Pierce, 23225). Appropriate dilutions of extracts ([…] protein per a track) were then fractionated in 8% SDS-PAGE and then transferred onto PVDF-membrane (Amersham) for immune blotting. Targeted proteins were detected using antibodies specific to phospho-p44/42 MAPK (Cell Signaling, 4370) and GAPDH (Abcam ab8245). Protein bands were visualized and then measured their intensities using ImageJ soft-ware. Data were expressed as a value (pixels per a band) of ERK1, ERK2 or phospho-ERK1 and phospho-ERK2 normalized to a value of respective GAPDH-bands. Mean values+SD were calculated using the data of 3 independent runs.

Test [2] concerns encephalomyocarditis virus. The test can be described thus: Antiviral (interferon-inducing) activity in culture of PLC/PRF/5 (Alexander) human hepatoma cell line. Type of test: cell-based, encephalomyocarditis virus strain Columbia SK-Col-SK. Conditions: for Antiviral efficacy (minimal compound concentration protecting 50% of the cells from death) / Titre of induced interferon (inverse to the maximal dilution protecting 50% of the cells): PLC/PRF/5 (Alexander) human hepatoma cells, 100 LD50 of encephalomyocarditis virus. The protocol:
(§1) In this methodology in vitro, we pretreated different types of cells with the studied peptides, and then the cells were infected with a dose of 100 LD50 of encephalomyocarditis virus. 24 hours after the infection the cytopathic effect of the virus was assessed in order to evaluate protective activity of the tested compound if the latter has the ability to bring the cells to a state, resistant to the virus, which is deadly for cells.
(§2) The lower is the concentration which protects 50% of cells from death due to the infection at a dose of 100 LD50 of encephalomyocarditis virus, the higher is antiviral (interferon-inducing) activity of the tested compound.
PLC/PRF/5 (Alexander) human hepatoma cell line was obtained from Research Institute of Virology named after Ivanovskiy (Moscow). Complete medium for cells culturing was prepared on the basis of MEM Eagle medium supplemented with 10% fetal calf serum (FCS), L-glutamine (300 μg/ml), and penicillin (100 U/ml).
(§3) The peptides were dissolved in distilled water, and then sterilized by passing through filters with pore size 0.2 μm to obtain the stock solutions of 1-2 mg/ml. On day 0, cells were seeded in the wells of 96-well plate in complete culture medium with cell density of 200 thousands of cells in 1 ml. On day 1, serial dilutions of each tested sample were prepared (24 serial dilutions in increments of 2) in triplets in the wells of the 96-well plate. On day 3, all the cultures were infected with a dose of 100 TCID50/ml of encephalomyocarditis virus strain “Columbia SK-Col-SK”. Finally, on day 4, cytopathic effect of the virus was assessed by using Leitz inverted microscope in the presence of different concentrations of the tested peptide or in the cultures without peptide (control).
(§4) Antiviral effect of the drug product was assessed based on minimal concentration thereof protecting 50% of the cells from death caused by encephalomyocarditis virus at a dose of 100 TCID50/ml. Interferon titre (U/ml) was calculated as a value, inverse to the maximal dilution of the drug product, which protected 50% of the cells from death caused by encephalomyocarditis virus at a dose of 100 TCID50/ml.

Test [3] relates to encephalomyocarditis virus. The test can be described thus: Antiviral (interferon-inducing) activity in culture of Girardi Heart human epithelial cell line. Conditions: for Antiviral efficacy (minimal compound concentration protecting 50% of the cells from death) / Titre of induced interferon (inverse to the maximal dilution protecting 50% of the cells): Girardi Heart epithelial cells, 100 LD50 of encephalomyocarditis virus. Type of test: cell-based. Here is the method:
as §1, §2, §3, §4
The culture of Girardi Heart human epithelial cell line was obtained from Research Institute of Virology named after Ivanovskiy (Moscow). Complete medium for cells culturing, peptides and compositions thereof, as well as assessment method for their antiviral (interferon-inducing) activity were the same as described in the Example 5.

Test [4] relates to encephalomyocarditis virus. Put plainly: Antiviral (interferon-inducing) activity in culture of HELA human cervical carcinoma cell line. Conditions: 100 LD50 of encephalomyocarditis virus. Type of test: cell-based. Here is the method:
as §1, §2, §3, §4
HELA human cervical carcinoma cell line was obtained from Research Institute of Virology named after Ivanovskiy (Moscow). Complete medium for cells culturing, peptides and compositions thereof, as well as assessment method for their antiviral (interferon-inducing) activity were the same as described in the Example 5.

The mark [5] stands for this setting: 1 hour after activation, peptide 10 μg/ml, TGF-β1 5 ng/ml, negative control 0.1+0.002.
[6] abbreviates: 1 hour after activation, peptide 10 μg/ml, TGF-β1 5 ng/ml, negative control 0.4+0.01.
The mark [7] stands for this setting: 6 hour time point, non-activated cultures 0.1+0.007.
Where [8] appears, read: 6 hours after activation, negative control 0.1+0.01.

With “TGF-β1: cytokine TGF-β1 (positive control)”, the results for the “phospho-ERK1 normalized value (band intensity normalized to GAPDH)” value in test [1] (setting [5]) and in test [1] (setting [8]) were 0.5+0.02 and 0.3+0.02, respectively. For the same substance, the “phospho-ERK2 normalized value (band intensity normalized to GAPDH)” value in test [1] (setting [6]) is 1.9+0.1; in test [1] (setting [7]) it was 0.35+0.02.

“NH2_Arg-Glu-Thr-Val-Glu-Arg-Glu-Lys-Glu_COOH (H-RETVEREKE-OH) [HP6-14]”: the “Antiviral efficacy (minimal compound concentration protecting 50% of the cells from death)” value came out at 0.78 µg/mL in test [2], 0.006 µg/mL in test [3] and 0.49 µg/mL in test [4]. For the same substance, the results for the “Titre of induced interferon (inverse to the maximal dilution protecting 50% of the cells)” value in test [2], in test [3] and in test [4] were 1280 U/ml, 163 840 U/ml and 2048 U/ml, respectively.

Take “NH2_Thr-Glu-Lys-Lys-Arg-Arg-Glu-Thr-Val-Glu-Arg-Glu-Lys-Glu_COOH (H-TEKKRRETVEREKE-OH) [HEP-1]”: the “Antiviral efficacy (minimal compound concentration protecting 50% of the cells from death)” value worked out at 3.0 µg/mL in test [2], 0.0015 µg/mL in test [3] and 3.9 µg/mL in test [4]. The “Titre of induced interferon (inverse to the maximal dilution protecting 50% of the cells)” value in test [2] is 320 U/ml; in test [3] it was 655 360 U/ml; in test [4], 256 U/ml.

For “NH2_Thr-Glu-Lys-Lys-Arg COOH (H-TEKKR-OH) [HP1-5]”, the “Antiviral efficacy (minimal compound concentration protecting 50% of the cells from death)” value in test [2] is 1.6 µg/mL; in test [3] it was 0.0015 µg/mL; in test [4], 0.49 µg/mL. Moreover, the “Titre of induced interferon (inverse to the maximal dilution protecting 50% of the cells)” value in test [2] was 640 U/ml; in test [3] it was 655 360 U/ml; in test [4], 2048 U/ml.

For “NH2_Gly-Glu-Lys-Lys-Arg-Arg-Glu-Thr-Val-Glu-Arg-Glu-Gly-Gly_COOH (H-GEKKRRETVEREGG-OH) [HP-V2]”, the “phospho-ERK1 normalized value (band intensity normalized to GAPDH)” value in test [1] (setting [5]) is listed as 0.4+0.02; in test [1] (setting [8]), 0.1+0.006. Further, the figures for the “phospho-ERK2 normalized value (band intensity normalized to GAPDH)” value in test [1] (setting [6]) and in test [1] (setting [7]) were 1.3+0.05 and 0.1+0.01, respectively. Also, the figures for the “Antiviral efficacy (minimal compound concentration protecting 50% of the cells from death)” value in test [2], in test [3] and in test [4] were 0.78 µg/mL, 0.0015 µg/mL and 7.8 µg/mL, respectively. For the same substance, the entries for the “Titre of induced interferon (inverse to the maximal dilution protecting 50% of the cells)” value in test [2], in test [3] and in test [4] were 1280 U/ml, 655 360 U/ml and 128 U/ml, respectively. Also, the “immunostimulatory activity compared with the activity of HEP-1 peptide” value in test [2] (Table 1, PLC/PRF/5 cells) is 4 times; in test [3] (Table 3, Girardi Heart cells), “the same”.
